Columns and labels:
[1] = system: phosphorylated AKT and MAPK; assay: Immunohistochemistry of tumors using antibodies against phosphorylated AKT and MAPK; format: in vivo, mice; conditions: tumors of treated animals, Examples 1 and 2 (macitentan) and Example 3 (atrasentan, zibotentan)
Description: Suppression of survival and proliferation pathways sensitizes cells to chemotherapy and could be the reason for the high effectiveness of macitentan in combination with chemotherapy.

[2] = system: LN229 human glioblastoma cells; assay: LN229 human glioblastoma cells stereotactically injected into nude mice brain: treatment with macitentan and paclitaxel (Example 2); format: in vivo; conditions: nude mice with intracerebral LN229, paclitaxel 8.5 mg/kg intraperitoneal weekly, macitentan 10 mg/kg oral daily
Experimental: (§1) Forty-eight (48) female Swiss Nude mice were obtained from Charles River (France). […] Animal experiments were performed according to the European ethical guidelines of animal experimentation.

[3] = system: LN229 human glioblastoma cells; assay: LN229 human glioblastoma cells stereotactically injected into nude mice brain: treatment with macitentan and temozolomide (Example 1); format: in vivo; conditions: nude mice with intracerebral LN229; treatment from two weeks after injection; temozolomide 7.5 mg/kg oral daily one week on/two weeks off; macitentan 10 mg/kg oral daily; day 100
Experimental: as §1
The mice were monitored daily and euthanized when they developed neurologic symptoms or became moribund. Days of survival were recorded and brain tissues were harvested and processed for histologic examinations. The experiment was terminated on day 100.

SMILES | reduction of phosphorylated AKT and MAPK in tumors (immunohistochemistry) [1] | survival after 70 days [2] | survival rate after 100 days [3]
CCCCN(CCCC)C(=O)CN1C[C@H](c2ccc3c(c2)OCO3)[C@@H](C(=O)O)[C@@H]1c1ccc(OC)cc1 [Atrasentan, atrasentan] | much less prominent | – | –
CC(=O)O[C@H]1C(=O)[C@@]2(C)[C@H]([C@H](OC(=O)c3ccccc3)[C@]3(O)C[C@H](OC(=O)[C@H](O)[C@@H](NC(=O)c4ccccc4)c4ccccc4)C(C)=C1C3(C)C)[C@]1(OC(C)=O)CO[C@@H]1C[C@@H]2O [PTL, paclitaxel] | – | about 60% | –
Cn1nnc2c(C(N)=O)ncn2c1=O [TMZ, temozolomide] | – | – | about 40%
COc1nc(C)cnc1NS(=O)(=O)c1cccnc1-c1ccc(-c2nnco2)cc1 [Zibotentan, zibotentan] | much less prominent | – | –
CCCNS(=O)(=O)Nc1ncnc(OCCOc2ncc(Br)cn2)c1-c1ccc(Br)cc1 [macitentan] | strong reduction of both proteins | about 60% | about 40%

From US20130310407A1, “COMBINATIONS COMPRISING MACITENTAN FOR THE TREATMENT OF GLIOBLASTOMA MULTIFORME” (ACTELION PHARMACEUTICALS LTD., priority 2011, published 2013)
